pKi: −log10 of the molar value. Counter-ions that a name gives are not always drawn. Like-named read-outs stand apart in the source and are kept apart here.
Target: T1, human V1a receptor (Homo sapiens, UniProt P37288)
T1 construct: expressed in transfected cells; host or cells: HEK293 cells, transiently transfected; membranes prepared
Experiment: human V1a receptor binding (3H-Vasopressin SPA, HEK293 membranes)
Conditions: for Ki: 3H-Vasopressin displacement, membranes of HEK293 cells transiently transfected with human V1a, Ki from IC50 by Cheng-Prussoff, read-out: pKi (hV1a) (converted)
Protocol: The human V1a receptor was cloned by RT-PCR from total human liver RNA. The coding sequence was subcloned in an expression vector after sequencing to confirm the identity of the amplified sequence. […] Cell membranes were prepared from HEK293 cells transiently transfected with the expression vector and grown in 20 liter fermenters with the following protocol.
50 g of cells are resuspended in 30 ml freshly prepared ice cold Lysis buffer (50 mM HEPES, 1 mM EDTA, 10 mM magnesium dichloride adjusted to pH=7.4+complete cocktail of protease inhibitor (Roche Diagnostics)). Homogenized with Polytron for 1 min and sonicated on ice for 2×2 minutes at 80% intensity (Vibracell sonicator). The preparation is centrifuged 20 min at 500 g at 4° C., the pellet is discarded and the supernatant centrifuged 1 hour at 43,000 g at 4° C. (19,000 rpm). The pellet is resuspended in 12.5 ml Lysis buffer+12.5 ml sucrose 20% and homogenized using a Polytron for 1-2 min. The protein concentration is determined by the Bradford method and aliquots are stored at −80° C. until use. For binding studies 60 mg Yttrium silicate SPA beads (Amersham®) are mixed with an aliquot of membrane in binding buffer (50 mM Tris, 120 mM sodium chloride, 5 mM potassium chloride, 2 mM calcium dichloride, 10 mM magnesium dichloride) for 15 minutes with mixing. 50 μl of bead/membrane mixture is then added to each well of a 96 well plate, followed by 50 μl of 4 nM 3H-Vasopressin (American Radiolabeled Chemicals). For total binding measurement 100 μl of binding buffer are added to the respective wells, for non-specific binding 100 μl of 8.4 mM cold vasopressin and for compound testing 100 μl of a serial dilution of each compound in 2% dimethyl sulfoxide. The plate is incubated 1 h at room temperature, centrifuged 1 min at 1000 g and counted on a Packard Top-Count. Non-specific binding counts are subtracted from each well and data is normalized to the maximum specific binding set at 100%. To calculate an IC50 the curve is fitted using a non-linear regression model (XLfit) and the Ki is calculated using the Cheng-Prussoff equation.

T1 sequence (P37288 whole entry): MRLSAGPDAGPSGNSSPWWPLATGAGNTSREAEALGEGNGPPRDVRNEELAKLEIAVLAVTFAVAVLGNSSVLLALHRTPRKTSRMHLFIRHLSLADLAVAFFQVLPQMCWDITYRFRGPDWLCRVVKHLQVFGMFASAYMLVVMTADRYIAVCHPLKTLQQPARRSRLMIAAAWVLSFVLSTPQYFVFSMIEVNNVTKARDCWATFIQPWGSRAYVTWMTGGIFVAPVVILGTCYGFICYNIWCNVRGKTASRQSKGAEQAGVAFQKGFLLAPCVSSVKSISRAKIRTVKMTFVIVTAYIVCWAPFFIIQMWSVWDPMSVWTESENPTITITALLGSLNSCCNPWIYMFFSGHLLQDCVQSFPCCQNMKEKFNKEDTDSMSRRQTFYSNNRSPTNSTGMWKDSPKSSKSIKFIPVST

SMILES	Ki [nM]	pKi
CC(C)(C)OC(=O)N1Cc2cc(Cl)ccc2-n2c(nnc2[C@H]2CC[C@H](c3ccccc3)CC2)C1 [Example 1, trans-8-Chloro-1-(4-phenyl-cyclohexyl)-4H,6H-2,3,5,10b-tetraaza-benzo[e]azulene-5-carboxylic acid tert-butyl ester]	6.46	
Clc1ccc2c(c1)CNCc1nnc([C@H]3CC[C@H](c4ccccc4)CC3)n1-2 [Example 2, trans-8-Chloro-1-(4-phenyl-cyclohexyl)-5,6-dihydro-4H-2,3,5,10b-tetraaza-benzo[e]azulene hydrochloride]	2.09	
CN1Cc2cc(Cl)ccc2-n2c(nnc2[C@H]2CC[C@H](c3ccccc3)CC2)C1 [Example 3, trans-8-Chloro-5-methyl-1-(4-phenyl-cyclohexyl)-5,6-dihydro-4H-2,3,5,10b-tetraaza-benzo[e]azulene]		9.10
Cc1ccccc1[C@H]1CC[C@@H](c2nnc3n2-c2ccc(Cl)cc2CN(C)C3)CC1 [Example 4, cis-8-Chloro-5-methyl-1-(4-o-tolyl-cyclohexyl)-5,6-dihydro-4H-2,3,5,10b-tetraaza-benzo[e]azulene]	16.2	
Cc1ccccc1[C@H]1CC[C@H](c2nnc3n2-c2ccc(Cl)cc2CN(C)C3)CC1 [Example 5, trans-8-Chloro-5-methyl-1-(4-o-tolyl-cyclohexyl)-5,6-dihydro-4H-2,3,5,10b-tetraaza-benzo[e]azulene]	4.27	
Cc1ccccc1[C@H]1CC[C@@H](c2nnc3n2-c2ccccc2CN(C)C3)CC1 [Example 6, cis-5-Methyl-1-(4-o-tolyl-cyclohexyl)-5,6-dihydro-4H-2,3,5,10b-tetraaza-benzo[e]azulene]	339	
CC(C)(C)OC(=O)N1Cc2cc(Cl)ccc2-n2c(nnc2[C@H]2CC[C@@H](c3ccc(F)cc3)CC2)C1 [Example 7]	52.5	
Fc1ccc([C@H]2CC[C@@H](c3nnc4n3-c3ccc(Cl)cc3CNC4)CC2)cc1 [Example 8, cis-8-Chloro-1-[4-(4-fluoro-phenyl)-cyclohexyl]-5,6-dihydro-4H-2,3,5,10b-tetraaza-benzo[e]azulene hydrochloride]	302	
CN1Cc2cc(Cl)ccc2-n2c(nnc2[C@H]2CC[C@@H](c3ccc(F)cc3)CC2)C1 [Example 9, cis-8-Chloro-1-[4-(4-fluoro-phenyl)-cyclohexyl]-5-methyl-5,6-dihydro-4H-2,3,5,10b-tetraaza-benzo[e]azulene]	30.2	
CC(C)(C)OC(=O)N1Cc2cc(Cl)ccc2-n2c(nnc2[C@H]2CC[C@H](c3ccc(F)cc3)CC2)C1 [Example 10]	4.68	
Fc1ccc([C@H]2CC[C@H](c3nnc4n3-c3ccc(Cl)cc3CNC4)CC2)cc1 [Example 11, trans-8-Chloro-1-[4-(4-fluoro-phenyl)-cyclohexyl]-5,6-dihydro-4H-2,3,5,10b-tetraaza-benzo[e]azulene hydrochloride]	6.31	
CN1Cc2cc(Cl)ccc2-n2c(nnc2[C@H]2CC[C@H](c3ccc(F)cc3)CC2)C1 [Example 12, trans-8-Chloro-1-[4-(4-fluoro-phenyl)-cyclohexyl]-5-methyl-5,6-dihydro-4H-2,3,5,10b-tetraaza-benzo[e]azulene]	2.19	
CC(C)(C)OC(=O)N1Cc2cc(Cl)ccc2-n2c(nnc2[C@H]2CC[C@H](c3cccc(OC(F)(F)F)c3)CC2)C1 [Example 13, trans-8-Chloro-1-[4-(3-trifluoromethoxy-phenyl)-cyclohexyl]-4H,6H-2,3,5,10b-tetraaza-benzo[e]azulene-5-carboxylic acid tert-butyl ester]	18.2	
FC(F)(F)Oc1cccc([C@H]2CC[C@H](c3nnc4n3-c3ccc(Cl)cc3CNC4)CC2)c1 [Example 14, trans-8-Chloro-1-[4-(3-trifluoromethoxy-phenyl)-cyclohexyl]-5,6-dihydro-4H-2,3,5,10b-tetraaza-benzo[e]azulene hydrochloride]	57.5	
CN1Cc2cc(Cl)ccc2-n2c(nnc2[C@H]2CC[C@H](c3cccc(OC(F)(F)F)c3)CC2)C1 [Example 15, trans-8-Chloro-5-methyl-1-[4-(3-trifluoromethoxy-phenyl)-cyclohexyl]-5,6-dihydro-4H-2,3,5,10b-tetraaza-benzo[e]azulene]	10.2	
CC(C)(C)OC(=O)N1Cc2cc(Cl)ccc2-n2c(nnc2[C@H]2CC[C@H](c3cccc(F)c3Cl)CC2)C1 [Example 16, trans-8-Chloro-1-[4-(2-chloro-3-fluoro-phenyl)-cyclohexyl]-4H,6H-2,3,5,10b-tetraaza-benzo[e]azulene-5-carboxylic acid tert-butyl ester]	4.17	
Fc1cccc([C@H]2CC[C@H](c3nnc4n3-c3ccc(Cl)cc3CNC4)CC2)c1Cl [Example 17, trans-8-Chloro-1-[4-(2-chloro-3-fluoro-phenyl)-cyclohexyl]-5,6-dihydro-4H-2,3,5,10b-tetraaza-benzo[e]azulene hydrochloride]	15.1	
CN1Cc2cc(Cl)ccc2-n2c(nnc2[C@H]2CC[C@H](c3cccc(F)c3Cl)CC2)C1 [Example 18, trans-8-Chloro-1-[4-(2-chloro-3-fluoro-phenyl)-cyclohexyl]-5-methyl-5,6-dihydro-4H-2,3,5,10b-tetraaza-benzo[e]azulene]	3.09	
CC(C)(C)OC(=O)N1Cc2cc(Cl)ccc2-n2c(nnc2[C@H]2CC[C@H](c3cccc4ccccc43)CC2)C1 [Example 19, trans-8-Chloro-1-(4-naphthalen-1-yl-cyclohexyl)-4H,6H-2,3,5,10b-tetraaza-benzo[e]azulene-5-carboxylic acid tert-butyl ester]		8.22
Clc1ccc2c(c1)CNCc1nnc([C@H]3CC[C@H](c4cccc5ccccc54)CC3)n1-2 [Example 20, trans-8-Chloro-1-(4-naphthalen-1-yl-cyclohexyl)-5,6-dihydro-4H-2,3,5,10b-tetraaza-benzo[e]azulene hydrochloride]	20.4	
CN1Cc2cc(Cl)ccc2-n2c(nnc2[C@H]2CC[C@H](c3cccc4ccccc43)CC2)C1 [Example 21, trans-8-Chloro-5-methyl-1-(4-naphthalen-1-yl-cyclohexyl)-5,6-dihydro-4H-2,3,5,10b-tetraaza-benzo[e]azulene]	7.59	
COc1ccc(F)cc1[C@H]1CC[C@H](c2nnc3n2-c2ccc(Cl)cc2CN(C(=O)OC(C)(C)C)C3)CC1 [Example 22, trans-8-Chloro-1-[4-(5-fluoro-2-methoxy-phenyl)-cyclohexyl]-4H,6H-2,3,5,10b-tetraaza-benzo[e]azulene-5-carboxylic acid tert-butyl ester]	11.2	
COc1ccc(F)cc1[C@H]1CC[C@H](c2nnc3n2-c2ccc(Cl)cc2CNC3)CC1 [Example 23, trans-8-Chloro-1-[4-(5-fluoro-2-methoxy-phenyl)-cyclohexyl]-5,6-dihydro-4H-2,3,5,10b-tetraaza-benzo[e]azulene hydrochloride]	42.7	
COc1ccc(F)cc1[C@H]1CC[C@H](c2nnc3n2-c2ccc(Cl)cc2CN(C)C3)CC1 [Example 24, trans-8-Chloro-1-[4-(5-fluoro-2-methoxy-phenyl)-cyclohexyl]-5-methyl-5,6-dihydro-4H-2,3,5,10b-tetraaza-benzo[e]azulene]	5.75	
CC(C)(C)OC(=O)N1Cc2cc(Cl)ccc2-n2c(nnc2[C@H]2CC[C@H](c3cccc(C#N)c3)CC2)C1 [Example 25, trans-8-Chloro-1-[4-(3-cyano-phenyl)-cyclohexyl]-4H,6H-2,3,5,10b-tetraaza-benzo[e]azulene-5-carboxylic acid tert-butyl ester]		8.15

From patent US8420633B2 (Hoffmann-La Roche Inc., priority 2010, dated 2013)
